Patent US20260138961A1, “MODULATORS OF MITOCHONDRIAL DNA REPLICATION” (Pretzel Therapeutics, Inc., priority 2022, published 2026)

What follows are molecules tested against T1, POLγA:R309C (Homo sapiens, UniProt P54098, R309C) (assay: DNA polymerization assay, POLγA:R309C mutant). Details: stimulation of polymerase activity, primed M13mp18 ssDNA, 37° C. 2 hours.
T1 sequence (P54098 1-1239 R309C): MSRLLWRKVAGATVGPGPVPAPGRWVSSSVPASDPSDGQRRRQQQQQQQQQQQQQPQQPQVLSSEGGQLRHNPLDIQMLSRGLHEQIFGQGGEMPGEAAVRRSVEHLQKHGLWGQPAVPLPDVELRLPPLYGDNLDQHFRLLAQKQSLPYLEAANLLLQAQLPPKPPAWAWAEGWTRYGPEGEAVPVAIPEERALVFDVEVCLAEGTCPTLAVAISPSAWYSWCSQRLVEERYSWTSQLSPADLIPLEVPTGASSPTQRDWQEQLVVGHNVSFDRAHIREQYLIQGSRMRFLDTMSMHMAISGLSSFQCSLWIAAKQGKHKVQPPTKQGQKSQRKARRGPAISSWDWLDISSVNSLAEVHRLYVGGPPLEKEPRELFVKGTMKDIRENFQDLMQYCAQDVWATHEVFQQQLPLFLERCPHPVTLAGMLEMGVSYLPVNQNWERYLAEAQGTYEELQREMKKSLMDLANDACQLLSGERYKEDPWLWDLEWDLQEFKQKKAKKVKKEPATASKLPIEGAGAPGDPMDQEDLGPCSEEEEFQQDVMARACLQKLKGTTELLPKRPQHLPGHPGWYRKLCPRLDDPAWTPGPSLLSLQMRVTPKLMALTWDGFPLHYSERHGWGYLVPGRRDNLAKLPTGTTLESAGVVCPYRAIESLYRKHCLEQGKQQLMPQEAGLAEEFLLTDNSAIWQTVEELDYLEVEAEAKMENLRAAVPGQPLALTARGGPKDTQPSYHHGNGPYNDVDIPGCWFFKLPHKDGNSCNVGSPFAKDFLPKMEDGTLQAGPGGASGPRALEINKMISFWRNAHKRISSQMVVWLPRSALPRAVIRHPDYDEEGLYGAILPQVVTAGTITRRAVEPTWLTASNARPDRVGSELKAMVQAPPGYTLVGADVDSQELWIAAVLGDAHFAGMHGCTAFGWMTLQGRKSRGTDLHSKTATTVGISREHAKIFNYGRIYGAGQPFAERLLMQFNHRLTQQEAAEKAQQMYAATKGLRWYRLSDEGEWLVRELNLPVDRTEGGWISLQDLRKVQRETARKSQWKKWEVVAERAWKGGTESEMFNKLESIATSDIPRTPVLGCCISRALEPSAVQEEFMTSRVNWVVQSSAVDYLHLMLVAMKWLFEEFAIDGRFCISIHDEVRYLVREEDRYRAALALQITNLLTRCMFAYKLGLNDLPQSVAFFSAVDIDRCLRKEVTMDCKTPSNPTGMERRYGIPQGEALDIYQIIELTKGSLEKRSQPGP
T1 sequence (Q9UHN1 1-485 partner): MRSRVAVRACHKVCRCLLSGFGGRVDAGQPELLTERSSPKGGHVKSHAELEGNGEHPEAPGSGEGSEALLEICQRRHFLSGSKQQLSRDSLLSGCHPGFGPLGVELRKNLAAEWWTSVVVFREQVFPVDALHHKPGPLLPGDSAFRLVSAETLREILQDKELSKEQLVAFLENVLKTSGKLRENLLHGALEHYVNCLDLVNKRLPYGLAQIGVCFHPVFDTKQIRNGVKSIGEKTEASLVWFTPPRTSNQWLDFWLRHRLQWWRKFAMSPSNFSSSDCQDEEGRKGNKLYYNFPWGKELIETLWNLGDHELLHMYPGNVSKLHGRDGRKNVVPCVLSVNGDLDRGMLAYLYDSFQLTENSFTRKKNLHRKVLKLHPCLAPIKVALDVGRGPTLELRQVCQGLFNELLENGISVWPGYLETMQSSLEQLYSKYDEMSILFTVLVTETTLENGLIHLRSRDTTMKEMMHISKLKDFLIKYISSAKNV
Assay type: biochemical
Experimental: DNA Polymerization Assay to Monitor Effects on Human Wildtype POLγ and Four Disease-Causing Mutant Variants of Human POLγ.
The ability of small molecules to stimulate the polymerase activity of POLγ was analyzed in a quantitative fluorescence SYBR Green I assay with fluorescence intensity (FI) readout.
In the presence of dNTPs, wild type human POLγ and mutant derivatives thereof were incubated with single-stranded, circular M13mp18 ssDNA hybridized to a short DNA oligonucleotide that functions as a primer for initiation of DNA synthesis. POLγ and mutant derivatives thereof will extend the primer and use the M13mp18 molecule as a template to synthesize long stretches of double-stranded DNA. SYBR Green I, which is a double-stranded DNA-binding dye, was used to quantify formation of double-stranded DNA in the reaction. When bound to double-stranded DNA, SYBR Green I fluorescence increases by up to 100-fold.
The assay was performed in the 384-well plate format. Upon addition of compounds, changes in double-stranded DNA synthesis activity can be monitored by following effects on fluorescent intensity.
The reactions also contained the accessory POLγB subunit, and the human mitochondrial single-stranded DNA binding protein (mtSSB).
The DNA template mixture used in the assay contained 0.5 nM primed M13 mp18 ssDNA, 400 nM mtSSB, 0.1 mM Tris-HCl (pH 8.0), 0.1 mM dNTP, 10 mM MgCl2, 0.1 mg/mL BSA, 1 mM TCEP solution, and 0.02% Triton X-100. The DNA template mixture for the wild type protein contained either 100 μM dNTP, 1 μM dNTP, or 0.1 μM dNTP, designated in Table 2 as 100 μM, 1 μM, and 0.1 μM, respectfully.
Microplates with compounds (0.1 μL in each well) to be tested in the assay were prepared from 10 mM compound stocks in 100% DMSO, and equal amounts of DMSO without any compound were added to positive and negative control wells.
The protein mixture was dispensed (5 μL into each well) into compound plates and incubated at 37° C. for 15 minutes. After incubation, 5 μL of the DNA template mixture was dispensed into each well. The plates were then incubated at 37° C. for 2 hours.
During incubation, a combined stop buffer and detection reagent solution was prepared. The buffer contained 25 mM EDTA (pH 8.0), 0.02% Triton X-100, and SYBR Green I [Invitrogen] diluted 10,000× (for fluorescent readout). EDTA will stop the enzymatic reaction by chelating magnesium ions.
Molecule `Cc1csc(-c2cccc(NS(=O)(=O)c3cc(C)c(Cl)cc3C)c2)n1` [Example 20, 4-chloro-2,5-dimethyl-N-(3-(4-methylthiazol-2-yl)phenyl)benzenesulfonamide] has an AC50 of 1000 nM.
For `Cc1cnc(-c2cccc(NS(=O)(=O)c3cc(C)c(Cl)cc3C)c2)s1` [Example 21, 4-chloro-2,5-dimethyl-N-(3-(5-methylthiazol-2-yl)phenyl)benzenesulfonamide], the AC50 was 1000 nM.
`Cc1ccc(C)c(S(=O)(=O)Nc2cccc(-c3nccs3)c2)c1` [Example 60] gave an AC50 of 900 nM.
`Cc1cc(S(=O)(=O)Nc2cccc(-c3cc(C4CC4)[nH]n3)c2)c(C)cc1Cl` [Example 64, 4-chloro-N-(3-(5-cyclopropyl-1H-pyrazol-3-yl)phenyl)-2,5-dimethylbenzenesulfonamide] was tested, and the AC50 was 1000 nM.
With `CC[C@@H]1CCCN1C(=O)c1cccc(NS(=O)(=O)c2cc(C)c(Cl)cc2C)c1` [Example 65, (R)-4-chloro-N-(3-(2-ethylpyrrolidine-1-carbonyl)phenyl)-2,5-dimethylbenzenesulfonamide] the AC50 was 5000 nM.
`Cc1cc(-c2cccc(NS(=O)(=O)c3cc(C)c(Cl)cc3C)c2)n[nH]1` [Example 66, 4-chloro-2,5-dimethyl-N-(3-(5-methyl-1H-pyrazol-3-yl)phenyl)benzenesulfonamide] showed an AC50 of 12000 nM.
`Cc1cc(S(=O)(=O)Nc2cccc(-c3cc[nH]n3)c2)c(C)cc1Cl` [Example 68, N-(3-(1H-pyrazol-3-yl)phenyl)-4-chloro-2,5-dimethylbenzenesulfonamide] showed an AC50 of 7000 nM.
For `Cc1cc(S(=O)(=O)Nc2ccc3ccn(C(C)C)c3c2)c(C)cc1Cl` [Example 69, 4-chloro-N-(1-isopropyl-1H-indol-6-yl)-2,5-dimethylbenzenesulfonamide], the AC50 was 1000 nM.
Work on `Cc1nc2ccc(NS(=O)(=O)c3cc(C)c(Cl)cc3C)cc2o1` [Example 70, 4-chloro-2,5-dimethyl-N-(2-methylbenzo[d]oxazol-6-yl)benzenesulfonamide] yielded an AC50 of 51000 nM.
In the case of `Cc1cc2cc(NS(=O)(=O)c3cc(C)c(Cl)cc3C)ccc2[nH]1` [Example 184, 4-chloro-2,5-dimethyl-N-(2-methyl-1H-indol-5-yl)benzenesulfonamide], the AC50 was 8000 nM.
